Consider three compounds from patent publication US20090192192A1, “INHIBITORS OF BIOFILM FORMATION OF GRAM-POSITIVE AND GRAM-NEGATIVE BACTERIA” (priority 2007, published 2009).

What is called inhibition is how much of the control response was suppressed. Read a low inhibition as a weak effect.

Common to all, as to format: cell-based
In assay [1] the test system is Staphylococcus epidermidis RP62A. Briefly: MBEC assay, biofilm formation of S. epidermidis RP62A. As to conditions: read-out: S. epidermidis RP62A log R (log reduction); for log reduction at 10 µM: compound concentration 10 μM; for log reduction at 100 µM: compound concentration 100 μM. On the procedure:
(§1) The compound to be tested was dissolved in DMSO to obtain a concentration that was 100 times that of the final concentration required (1 mM for the 10 μM assay and 10 mM for the 100 μM assay). 1.5 μL of the above solution was placed into each well of a 96 well plate (final volume in each well=150 μL, final DMSO concentration of 1% (v/v)).
(§2) To grow the organism and form a biofilm, a cryogenic stock of the test organism (at −70° C.) was used. A first sub-culture was streaked out onto TSA (tryptic soy agar), upon which the plate was incubated at 35±2° C. for 24 hours and stored wrapped in parafilm at 4° C. afterwards. From this first sub-culture, a second sub-culture was streaked out onto TSA. The plate was incubated at 35±2° C. for 24 hours. The second sub-culture was used within 24 hours starting from the time it was first removed from incubation. Using the second sub-culture an inoculum in 3 mL sterile water that matches a 0.5 McFarland Standard (1.5×10^8 cells per mL) was created in a glass test tube using a sterile cotton swab. 2.2 mL of this solution was diluted in 22 mL 100% TSB (tryptic soy broth) medium to a cell density of approximately 6.0×10^5 cells per mL. The diluted organism was inverted 3-5 times to achieve uniform mixing of the organism. One sample (100 μl) of the diluted organism was used for an inoculum check by serially diluting and spot plating on TSA.
(§3) To prepare a challenge plate, […] of the diluted organism was added to each well of a 96 well plate except the sterility control wells. The test compounds were added to the wells to make up final concentrations of 10 μM and […] (1.5 μL/well) in the designated location in the test plate. 128.5 μL of 100% universal neutralizer (1% Tween 80 in Cation Adjusted Mueller Hinton Broth, CAMHB) was placed in each of the wells. 130 μL of media was added to the growth control wells. 128.5 μL of media+1.5 μL of DMSO were added to a second set of growth control wells. 150 μL of media was added to the sterility controls. Each sample was run in triplicate. The plate was covered by a lid with a peg per well and wrapped in parafilm and placed on a shaker in a humidified incubator (GeneVac) at 35±+2° C. for 24 hours set at 110 rpm.
(§4) Rinse plate(s) of 0.9% saline (200 μL per well) were prepared in a sterile 96 well microtitre plate. Lid-associated pegs were rinsed in 0.9% saline for approximately 1-2 minutes. The peg lid was transferred to the recovery media (1.0% Tween 80 in CAMHB) then sonicated for 30 minutes to dislodge surviving biofilm. Following sonication, 100 μL from each well of the 96 well plate was placed into the first 12 wells of the first row of a 96 well microtiter plate. 180 μl of 0.9% sterile saline was placed in the remaining rows. A serial dilution (10^0-10^7) was prepared by moving 20 μl down each of the 8 rows. 20 μl from each well was removed and spot plated on a prepared TSA. In the remaining recovery plate, 100 μl of fresh growth media (1.0% Tween 80 in CAMHB) was placed in each well to replace the amount removed. The recovery plate was covered with a regular lid and incubated at 35±2° C. for 24 hours and read visually to confirm antimicrobial activity of the test compounds.
(§5) The compounds of the present disclosure have been tested regarding their efficiency to inhibit biofilm formation of Staphylococcus aureus U of C#18 (MRSA), Staphylococcus aureus 456 (MRSA), Staphylococcus epidermidis RP62A, and Pseudomonas aeruginosa PAO1.

The subject of assay [2] is Staphylococcus aureus 398 (MRSA). Kind of assay: MBEC assay, biofilm formation of S. aureus 398 (MRSA). On the procedure:
as §1
as §2, with “2.2 mL of this solution was diluted in 22 mL 100% TSB (tryptic soy broth) medium to a cell density of approximately 6.0×10^5 cells per mL. The diluted organism was inverted 3-5 times to achieve uniform mixing of the organism. One sample (100 μl) of the diluted organism was used for an inoculum check by serially diluting and spot plating on TSA.” left out
Rinse plate(s) of 0.9% saline (200 μL per well) were prepared in a sterile 96 well microtitre plate. […] The recovery plate was covered with a regular lid and incubated at 35±2° C. for 24 hours and read visually to confirm antimicrobial activity of the test compounds. […]

Assay [3] concerns Pseudomonas aeruginosa PAO1. Briefly: MBEC assay, biofilm formation of P. aeruginosa PAO1. As to conditions: for IC50: biofilm formation, read-out: P. aeruginosa PAO1 inhibitory concentration IC50. The gist of the method:
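Peg-lid biofilms were grown 24 h at 35±2 °C, 110 rpm, from inoculum diluted to ~6.0×10^5 cells per mL in TSB, with compound at 10 μM or 100 μM final (1% DMSO) in 1% Tween 80/CAMHB. Pegs were rinsed, then sonicated 30 min into recovery medium; survivors were spot-plated, and recovery plates were read visually after 24 h; triplicates.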

Assay [4] relates to Staphylococcus aureus U of C#18 (MRSA). Briefly: MBEC assay, biofilm formation of S. aureus U of C #18 (MRSA). The following applies: read-out: S. aureus U of C #18 (MRSA) log R (log reduction); for log reduction at 10 µM: compound concentration 10 μM; for log reduction at 100 µM: compound concentration 100 μM. On the procedure:
as §1, §2, §3, §4, §5

For assay [5], the system named is Staphylococcus aureus 456 (MRSA). Briefly: MBEC assay, biofilm formation of S. aureus 456 (MRSA). The following applies: read-out: S. aureus 456 (MRSA) log R (log reduction); for log reduction at 10 µM: compound concentration 10 μM; for log reduction at 100 µM: compound concentration 100 μM. As to the method:
as §1, §2, §3, §4, §5

Consider `CCCCCCCCCCNC(=O)N1CCCC(C(=O)N(CC)CC)C1` (stereo not drawn) [Example 10, N^1-decyl-N^3,N^3-diethylpiperidine-1,3-dicarboxamide], for which the values for the log reduction at 10 µM in assay [1] and in assay [4] were 1.33 and 1.17, respectively. Further, the log reduction at 100 µM came to 1.28 in assay [1] and 0.91 in assay [4]. The “S. aureus 398 (MRSA) log R (log reduction)” value in assay [2] (compound concentration 10 μM) was 1.38; in assay [2] (compound concentration 100 μM), 2.54. The same compound showed an inhibition at 100 µM in assay [3] (compound concentration 100 μM) of 84%.
For `CCCCCCCCCCNC(=O)N(C)[C@@H](C)c1ccccc1` [Example 7, (S)-3-decyl-1-methyl-1-(1-phenylethyl)urea], the log reduction at 10 µM in assay [5] was 0.53; in assay [1], 0; in assay [4], 0.84. Besides, the log reduction at 100 µM came to 1.26 in assay [5], 0 in assay [1] and 1.12 in assay [4]. Further, the IC50 in assay [3] was 4 µM.
Turning to `CCCCCCCCCCNC(=O)Nc1cc(C(C)(C)C)nn1C` [Example 8, 1-(3-tert-butyl-1-methylpyrazol-5-yl)-3-decylurea], the log reduction at 10 µM in assay [5] came out at 0.42; in assay [1] it was 0; in assay [4], 0.26. For the same compound, the results for the log reduction at 100 µM in assay [5], in assay [1] and in assay [4] were 1.04, 0 and 0.8, respectively. In addition, the IC50 in assay [3] worked out at 3 µM.
